Test results as given in US20240382475A1, “Quinazoline Derivative, Or Preparation Method Therefor And Use Thereof” (Zhejiang Hisun Pharmaceutical Co., Ltd., priority 2021, published 2024).
Like-named read-outs stand apart in the source and are kept apart here.

Key:
[1] = Pharmacokinetic evaluation in SD rats; assay type: in vivo; settings: male, rat, plasma; for AUC(0-t): read-out: Area under curve AUC0-t; for half-life: read-out: Half-life T1/2 (converted)
Description: SD rats were used as the test animals, and LC/MS/MS was used to determine the drug concentrations at different moments in plasma after compound 11 of the present invention was administered to the rats through intravenous injection or intragastric administration. The pharmacokinetic characteristics of compound 11 of the present invention in SD rats were studied.
SD rats, male, 195-235 g, 6-8 weeks old, were purchased from Vital River Laboratory Animal Technology Co., Ltd.
Intravenous injection group: an appropriate amount of the compound to be tested was weighed, and an appropriate amount of DMA:30% Solutol HS-15:Saline=5:5:90 (v/v/v) was added respectively, vortexed, and a solution with a final concentration of 0.2 mg/mL was prepared.
Intragastric administration group: an appropriate amount of the compound to be tested was weighed, and an appropriate amount of DMA:30% Solutol HS-15:Saline=5:5:90 (v/v/v) was added, vortexed, and a solution with a final concentration of 1 mg/mL was prepared.
The SD rats were divided into intravenous injection group (3 rats/group) and intragastric administration group (3 rats/group) according to the compound to be tested.
Intravenous injection group: rats were fasted overnight and then administered by intravenous injection (administration dosage was 1 mg/kg, and administration volume was 5 mL/kg), and ate 4 hours after administration.
Intragastric administration group: rats were fasted overnight followed by intragastric administration (administration dosage was 10 mg/kg, and administration volume was 10 mL/kg), and ate 4 hours after administration.
Intravenous injection group: about 150 μL of blood was collected through jugular vein into EDTA-K2 anticoagulant tubes 0.083 hour, 0.25 hour, 0.5 hour, 1 hour, 2 hours, 4 hours, 8 hours and 24 hours after administration. The collected blood sample was placed on ice, and plasma was separated by centrifugation (centrifugation condition: 1500 g, 10 minutes). The collected plasma sample was stored at −40˜−20° C. before analysis.
Intragastric administration group: about 100 μL of blood was collected through jugular vein into EDTA-K2 anticoagulant tubes 0.25 hour, 0.5 hour, 1 hour, 2 hours, 4 hours, 8 hours and 24 hours after administration. The collected blood sample was placed on ice, and plasma was separated by centrifugation (centrifugation condition: 1500 g, 10 minutes). The collected plasma sample was stored at −40˜−20° C. before analysis.
LC-MS/MS was used to determine the content of the compound to be tested in rat plasma after intravenous injection and intragastric administration of the compound.

[2] = system: human lung cancer NCI-H2122 subcutaneous xenotransplanted tumor; assay: Pharmacodynamic evaluation in nude mouse subcutaneous xenotransplanted model of human lung cancer NCI-H2122; assay type: in vivo, Balb/c nude mouse
Description: The anti-tumor effect and safety of compound 11 of the present invention were evaluated in a Balb/c nude mouse animal model of subcutaneous xenotransplanted NCI-H2122.
BALB/c; nude mice, female, 6-7 weeks old (the age of mice when tumor cells were inoculated), purchased from Jiangsu Jicui Yaokang Biotechnology Co., Ltd.
The solvent control group was given DMSO:castor oil:5% glucose injection=20:10:70 (v/v/v).
AMG-510: an appropriate amount of AMG-510 was weighed, and an appropriate amount of DMSO:castor oil:5% glucose injection=20:10:70 (v/v/v) was added. After the above mixture was fully dissolved, an appropriate amount of 1 M hydrochloric acid was added, vortexed and mixed to prepare a solution with a concentration of 3 mg/mL.
Compound 11: an appropriate amount of compound 11 was weighed, and an appropriate amount of DMSO:castor oil:5% glucose injection=20:10:70 (v/v/v) was added. After the above mixture was fully dissolved, an appropriate amount of 1 M hydrochloric acid was added, vortexed and mixed to prepare a solution with a concentration of 3 mg/mL.
H2122 cells were cultured in 1640 culture medium containing 10% fetal bovine serum and 1% penicillin-streptomycin-amphotericin B solution. H2122 cells in the exponential growth phase were collected and resuspended in matrigel solution (matrigel:PBS=1:1 (V/V)) to a suitable concentration for subcutaneous tumor inoculation in nude mice.
Female Balb/c nude mice were subcutaneously inoculated with about 3.0×10^6H2122 cells on the right sides of their backs. When the average volume of the tumors reaches about 150-200 mm^3, the mice were randomly divided according to the tumor sizes with 6 mice in each group.
• Group 1 (G1), solvent control group; • Group 2 (G2), AMG-510 was given by intragastric administration at a dose of 30 mg/kg; • Group 3 (G3), Example 11 was given by intragastric administration at a dose of 30 mg/kg; • Group 4 (G4), AMG-510 and Example 11 were administered in combination, and the dosages were respectively: AMG-510, 30 mg/kg (QD); Example 11, 30 mg/kg (QD).
After tumor inoculation, routine monitoring included the effects of tumor growth and treatment on the normal behaviors of the animals, specifically the mobility, feeding and drinking, weight gain or loss, eyes, coat and other abnormalities of the experimental animals.
Calculation formulae for a relative tumor volume (RTV), a relative tumor proliferation rate (T/C) and a tumor inhibition percentage (IR) were as follows: • (1) TV (tumor volume)=½×a×b^2, wherein a and b represent the length and width of the tumor respectively; • (2) RTV (relative tumor volume)=Vt/Vo, wherein Vo is the tumor volume measured at the time of administration when grouping (i.e. do), and Vt is the tumor volume at each measurement; • (3) relative tumor proliferation rate T/C (%)=TRTV/CRTV×100%, wherein TRTV is the RTV of the treatment group and CRTV is the RTV of the control group; • (4) Tumor growth inhibition rate TGI(%)=(1−T/C)×100%; wherein, T and C are the relative tumor volumes of the treatment group and the control group at a specific time point. • (5) IR (%)=(1−TWt/TWc)×100%, wherein, TWt is the tumor weight of the treatment group and TWc is the tumor weight of the control group. The anti-tumor evaluation criteria are (cytotoxic drugs): T/C(%)>40% is invalid; T/C(%)≤40%, and after statistical processing, P<0.05 is effective.

[3] = 16 days after administration, 30 mg/kg each agent
[4] = end of the experiment, 30 mg/kg each agent

SMILES: COc1cc2nc(C)nc(N[C@H](C)c3cccc(C#N)c3C)c2cc1N1CCC(C)(O)CC1 [Compound 11, (R)-3-(1-((6-(4-hydroxy-4-methylpiperidin-1-yl)-7-methoxy-2-methylquinazolin-4-yl)amino)ethyl)-2-methylbenzonitrile]
- bioavailability ([1]; Oral 10 mg/kg vs injection 1 mg/kg, read-out: Bioavailability F): 79.4%
- AUC(0-t) ([1]; Oral 10 mg/kg): 4860 ± 1670 ng·h/mL
- half-life ([1]; Oral 10 mg/kg): 2.41 ± 2.11 h
- Cmax ([1]; Oral 10 mg/kg, read-out: Plasma concentration Cmax): 1150 ± 349 ng/mL
- AUC(0-t) ([1]; iv, injection 1 mg/kg): 612 ± 126 ng·h/mL
- half-life ([1]; iv, injection 1 mg/kg): 0.73 ± 0.32 h
- Relative tumor volume (x ± S) [2, 3]: 4.03 ± 0.67
- TGI % [2, 3]: 20.7%
- Tumor volume (x ± S) ([2]; Day 0 after administration, 30 mg/kg each agent, intragastric): 199 ± 18 mm^3
- Tumor volume (x ± S) ([2]; Day 3 after administration, 30 mg/kg each agent, intragastric): 329 ± 36 mm^3
- Tumor volume (x ± S) ([2]; Day 7 after administration, 30 mg/kg each agent, intragastric): 460 ± 53 mm^3
- Tumor volume (x ± S) ([2]; Day 10 after administration, 30 mg/kg each agent, intragastric): 551 ± 60 mm^3
- Tumor volume (x ± S) ([2]; Day 14 after administration, 30 mg/kg each agent, intragastric): 704 ± 88 mm^3
- Tumor volume (x ± S) ([2]; Day 16 after administration, 30 mg/kg each agent, intragastric): 757 ± 90 mm^3
- Tumor volume (x ± S) ([2]; Table 11, 16 days after administration, 30 mg/kg each agent, in mm³): 757 ± 90
- Inhibition rate of tumor weight (%) [2, 4]: 16.8%
- Tumor weight (g) (x ± S) [2, 4]: 0.6283 ± 0.0663 g
- anti-tumor activity (conclusion in words) ([2]; under the combination with AMG-510, KRAS-G12C inhibitor non-sensitive cell line NCI-H2122): good anti-tumor activity
